Assays:
BV2 microglia cells [1] = assay: ROS production (H2DCFDA) in LPS-treated BV2 microglia; format: cell-based; conditions: LPS 1 μg/mL, 24 h
Source text: Activation of toll-like receptors (TLRs), particularly the TLR4 subtype, is closely associated with the production of reactive oxygen and nitrogen species that contribute to neuronal death in the CNS. In this connection, NADPH oxidase enzymes are the main ones responsible for ROS production induced by NF-κB nuclear translocation. For this reason, we decided to assess the ROS levels of BV2 microglia cells treated with LPS and the effect of our compounds under this toxicity protocol. To this end, the compounds, at different concentrations (3 μM of 3a, 3b, and 3d and 10 μM of 3c) were incubated with 1 μg/mL LPS for 24 h. After this period, ROS production was measured with the fluorescent probe H2DCFDA. Treatment with LPS increased by 1.75-fold the amount of ROS compared with control cells.
(§1) Cultures were seeded into flasks containing supplemented medium and kept at 37 °C in a humidified atmosphere of 5% CO2 and 95% air. For assays, BV-2 cells were subcultured in 48-well plates at a seeding density of 1 × 10^5 cells per well. Cells were treated with LPS (Sigma-Aldrich, Madrid, Spain) for 24 or 48 h before confluence in RPMI with 1% FBS.
To measure cellular ROS, we used the molecular probe 2′,7′-dichlorodihydrofluorescein diacetate (H2DCFDA). Glial cells were loaded with 5 µM H2DCFDA as it was previously described (Parada et al., 2015). Fluorescence was measured in a fluorescence microplate reader (FLUOstar Galaxy; BMG Labtech, Offenburg, Germany). Wavelengths of excitation and emission were 485 and 520 nm, respectively. The relative pixel intensity was measured in identical regions with (ImageJ 1.52a software, National Institutes of Health, Bethesda, MD, USA).

BV2 microglia cells [2] = assay: Nitrite release (Griess reaction) in LPS-treated BV2 microglia; format: cell-based; conditions: LPS 1 μg/mL, basal = 100
Source text: The COX-1 inhibition data prompted us to undertake further work on the activity of compounds 3 in a neuroinflammation situation. Once we had verified that the compounds studied were not toxic per se in microglia BV2 cells (see the data in Table S1), we measured the nitrites released to determine the efficacy of our compounds in reducing microglia activation. Nitric oxide is a potent mediator of the classic activated microglia phenotype (M1); in fact, the lack of nitrite release correlated with an anti-inflammatory microglia (M2) phenotype. Therefore, we evaluated the response of the BV2 microglia cells to a challenge of 1 μg/mL LPS. For this purpose, BV2 microglia cells were incubated with LPS, a well-known agonist of the toll-like receptor 4 (TLR4) that causes a neuroinflammatory response, in combination with increasing concentrations of our COX-1 inhibitors (1, 3, and 10 μM). […] Similar results were observed after 48 h of the LPS treatment.
as §1
The NO assay was performed using the previously reported protocols. Briefly, 100 μL of culture supernatants were mixed with the same volume of Griess assay regent (1% sulfanilamide (Sigma Aldrich, Madrid, Spain), 0.1% naphthylethylenediamine dihydrochloride, and 2.5% phosphoric acid). Ten minutes later, the 560-nm absorbance was measured.

BV2 microglia cells [3] = assay: LPS-induced activated (ramified) phenotype of BV2 microglia; format: cell-based; conditions: LPS 1 μg/mL, 24 h
Source text: Next, we set out to study the changes in microglia phenotype under this toxicity protocol. As mentioned above, microglia are comprised of variable morphology cells that are always adapting to the surrounding media and, therefore, to physiopathological conditions. Indeed, morphological appearance is well correlated with the different states of microglia activation. The microglia-activated phenotype (M1), which is the classical state of this kind of cell in response to proinflammatory insults such as LPS, is linked with the overexpression of a plethora of cytokines and inflammatory markers, namely TNF, IL-1β, IL-6, MCP-1 or CD11b. All of these markers are commonly associated with morphological changes towards an amoeboid phenotype in primary cultures or in in vivo studies. Nevertheless, it has been recently described that BV2 microglia, as well as macrophages, turn from rounded to spindle-shaped or multipolar phenotypes in response to various M1 proinflammatory stimuli such as LPS/IFNγ or spinal cord injury conditioned media. In this context, we assessed the ability of our compounds to prevent the morphological changes induced by LPS by analyzing the percentage of BV2 ramified cells (multipolar or spindle) over the total BV2 per field following cell incubation with our compounds and 1 μg/mL LPS for 24 h.
as §1

ovine COX-1 = biological target: T1, ovine COX-1 (Ovis aries, UniProt P05979); assay: Cyclooxygenase colorimetric inhibitor screening assay, COX-1; format: biochemical; conditions: for inhibition at 50 µM: ovine COX-1, 50 µM, % Inhibition at 50 µM (converted); for inhibition at 50 µM / IC50: read-out: oCOX-1; for IC50: ovine COX-1, colorimetric kit, triplicate;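 on all read-outs here: COX peroxidase activity read colorimetrically as oxidized TMPD at 590 nm, arachidonic acid as substrate, inhibitors tested at 0.001–50 µM from DMSO stocks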
T1 construct: purchased Cayman Chemicals 701050
T1 sequence (P05979 25-600): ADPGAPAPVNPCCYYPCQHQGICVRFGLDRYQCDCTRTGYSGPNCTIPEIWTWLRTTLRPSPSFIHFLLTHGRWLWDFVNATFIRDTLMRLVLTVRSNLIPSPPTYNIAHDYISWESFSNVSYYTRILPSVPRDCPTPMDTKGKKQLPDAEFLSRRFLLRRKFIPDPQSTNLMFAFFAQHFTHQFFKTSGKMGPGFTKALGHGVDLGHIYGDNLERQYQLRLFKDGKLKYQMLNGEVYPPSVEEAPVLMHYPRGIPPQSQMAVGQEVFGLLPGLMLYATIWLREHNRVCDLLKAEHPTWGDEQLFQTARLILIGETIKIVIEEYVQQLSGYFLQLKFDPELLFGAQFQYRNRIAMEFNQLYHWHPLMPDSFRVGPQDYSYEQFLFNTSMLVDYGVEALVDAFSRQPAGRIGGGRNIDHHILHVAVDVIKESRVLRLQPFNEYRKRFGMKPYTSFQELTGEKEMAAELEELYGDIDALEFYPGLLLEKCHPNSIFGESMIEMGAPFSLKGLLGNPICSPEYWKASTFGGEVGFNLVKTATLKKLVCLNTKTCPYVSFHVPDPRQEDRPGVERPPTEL
Method: (§2) Newly synthesized compounds were evaluated for their ability to inhibit ovine COX-1 or human COX-2 enzyme by measuring the extent (%) of enzyme activity inhibition at different concentrations (0.001, 0.01, 0.1, 1, 10, 50 μM). […] The assay kit measures the peroxidase component of COXs that is assayed colorimetrically by monitoring the appearance of oxidized N,N,N′,N′-tetramethyl-p-phenylenediamine (TMPD) a λ = 590 nm. […] Stock solutions of test compounds were dissolved in DMSO.

human COX-2 = biological target: T2, human COX-2 (Homo sapiens, UniProt P35354); assay: Cyclooxygenase colorimetric inhibitor screening assay, COX-2; format: biochemical; conditions: read-out: hCOX-2; for inhibition at 50 µM: human COX-2, 50 µM; for IC50: human COX-2, colorimetric kit;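 on all read-outs here: peroxidase activity of COX-2 followed colorimetrically through formation of oxidized TMPD at 590 nm, with arachidonic acid as substrate, compounds tested from 0.001 to 50 µM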
T2 construct: purchased Cayman Chemicals 701050
T2 sequence (P35354 18-604): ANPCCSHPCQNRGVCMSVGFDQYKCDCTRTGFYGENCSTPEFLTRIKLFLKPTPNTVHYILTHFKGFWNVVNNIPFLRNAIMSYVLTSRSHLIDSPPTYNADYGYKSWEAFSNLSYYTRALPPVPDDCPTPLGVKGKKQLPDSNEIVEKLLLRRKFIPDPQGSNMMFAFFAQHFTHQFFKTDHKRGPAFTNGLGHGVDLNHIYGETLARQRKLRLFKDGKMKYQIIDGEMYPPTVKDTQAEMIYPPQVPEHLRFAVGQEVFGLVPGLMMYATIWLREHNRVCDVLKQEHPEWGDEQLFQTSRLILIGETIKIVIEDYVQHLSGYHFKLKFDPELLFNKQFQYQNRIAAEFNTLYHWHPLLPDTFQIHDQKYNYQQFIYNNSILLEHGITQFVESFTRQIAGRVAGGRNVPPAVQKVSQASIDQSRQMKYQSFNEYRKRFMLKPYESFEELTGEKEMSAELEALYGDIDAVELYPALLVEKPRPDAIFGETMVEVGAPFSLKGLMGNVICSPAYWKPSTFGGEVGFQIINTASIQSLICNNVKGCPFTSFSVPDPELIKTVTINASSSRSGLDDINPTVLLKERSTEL
Method: as §2

[4] = test system: organotypic hippocampal cultures (OHCs); assay: Cell death (propidium iodide uptake, CA1) in organotypic hippocampal cultures treated with LPS; format: cell-based, Sprague-Dawley rats; conditions: LPS 1 μg/mL, 24 h
Method: With these promising data in hand, we selected compound 3b for its study in a more complex preparation. In vivo administration of LPS produces a proinflammatory cascade that causes memory deficits, an increase of inflammatory markers, and impairment of hippocampal glutamatergic transmission, contributing to neuronal death. All of these functional changes have been described to take place mainly in the hippocampus region. Thus, we subjected organotypic hippocampal cultures (OHCs) to LPS (1 μg/mL) to assess the protective effect of COX-1 inhibition. This kind of explant allows us to study the microglia-neuron network in a more complex and physiological model of cerebral insult.
OHCs were conducted on 8–10-day-old Sprague-Dawley rats supplied by the animal facilities of Universidad Autónoma de Madrid (Madrid, Spain). Cultures were prepared according to the methods described by Stoppini et al. with some modifications. […]
Cell death was determined in the CA1 region by staining the OHCs with propidium iodide (PI). Thirty minutes before analyzing fluorescence, slices were incubated with PI (1 µg/mL). Fluorescence was measured in an epifluorescence Olympus BX50WI microscope. […] Fluorescence was measured in each slice using ImageJ.

BV2 microglia cells [5] = assay: Nitrite release (Griess reaction) in LPS-treated BV2 microglia; format: cell-based; conditions: 100 nM, LPS 1 μg/mL, basal = 100

inhibition at 50 µM (ovine COX-1) [%] | IC50 (ovine COX-1) [µM] | inhibition at 50 µM (human COX-2) [%] | IC50 (human COX-2) [µM] | COX-1 selectivity (in words) (ovine COX-1; ovine COX-1 vs human COX-2) | melting point [°C] | SMILES | ROS production induced by LPS (BV2 microglia cells [1]; 3 μM) | Nitrite Release after 24 h (BV2 microglia cells [2]; 1 μM) [%] | Nitrite Release after 48 h (BV2 microglia cells [2]; 1 μM) [%] | Nitrite Release after 24 h (BV2 microglia cells [2]; 3 μM) [%] | Nitrite Release after 48 h (BV2 microglia cells [2]; 3 μM) [%] | Nitrite Release after 24 h (BV2 microglia cells [2]; 10 μM) [%] | Nitrite Release after 48 h (BV2 microglia cells [2]; 10 μM) [%] | Reduction of the number of BV2 ramified cells (BV2 microglia cells [3]; 3 μM) [%] | COX-1/COX-2 inhibition ratio (ovine COX-1; ovine COX-1 vs human COX-2) | Reduction of the number of BV2 ramified cells (BV2 microglia cells [3]; 10 μM) [%] | ROS production induced by LPS (BV2 microglia cells [1]; 100 nM) | Cell death (PI uptake in CA1) induced by LPS [4] | Nitrite Release after 24 h (BV2 microglia cells [5]; 24 h) [%] | Nitrite Release after 48 h (BV2 microglia cells [5]; 48 h) [%]
100 | 4.7 ± 3.04 | – | > 50 | complete selectivity towards COX-1 | – | Nc1cc(-c2ccccc2)cc(-c2ccc(Cl)cc2)c1 [Compound 3c, 4-Chloro-5′-amino-m-terphenyl] | significantly reverted ROS production almost to basal levels | 135 ± 6 | 181 ± 9 | 117 ± 8 | 163 ± 5 | 110 ± 6 | 138 ± 7 | – | – | 60 | – | – | – | –
36 | – | – | > 50 | – | – | Nc1cc(-c2ccc(Cl)cc2)cc(-c2ccc(Cl)cc2)c1 [Compound 3d, 4,4″-Dichloro-5′-amino-m-terphenyl] | failed to decrease the levels of ROS | – | – | – | – | – | – | – | – | – | – | – | – | –
73 | 0.9 ± 0.76 | 8 | – | – | – | COc1ccc(-c2cc(N)cc(-c3ccccc3)c2)cc1 [Compound 3e, 4-Methoxy-5′-amino-m-terphenyl] | – | 124 ± 9 | 144 ± 15 | 110 ± 6 | 133 ± 13 | 103 ± 9 | 131 ± 13 | 60 | – | – | – | – | – | –
10 | – | 30 | – | did not show COX-1 selectivity | 222 to 223 | O=C(Nc1cc(-c2ccc(Br)cc2)cc(-c2ccc(Br)cc2)c1)NC1CCCC1 [Compound 4f, 1-([4,4″-Dibromo-m-terphenyl]-5′-yl)-3-cyclopentylurea] | – | – | – | – | – | – | – | – | – | – | – | – | – | –
– | – | – | – | – | – | COc1ccc(-n2nc(C(F)(F)F)cc2-c2ccc(Cl)cc2)cc1 [SC-560, reference compound] | – | – | – | – | – | – | – | – | – | – | significantly reverted ROS production almost to basal levels | prevented | 114 ± 9 | 135 ± 8

SMILES | inhibition at 50 µM (ovine COX-1) [%] | IC50 (ovine COX-1) [µM] | inhibition at 50 µM (human COX-2) [%] | IC50 (human COX-2) [µM] | COX-1 selectivity (in words) (ovine COX-1; ovine COX-1 vs human COX-2) | melting point [°C] | ROS production induced by LPS (BV2 microglia cells [1]; 3 μM) | Nitrite Release after 24 h (BV2 microglia cells [2]; 1 μM) [%] | Nitrite Release after 48 h (BV2 microglia cells [2]; 1 μM) [%] | Nitrite Release after 24 h (BV2 microglia cells [2]; 3 μM) [%] | Nitrite Release after 48 h (BV2 microglia cells [2]; 3 μM) [%] | Nitrite Release after 24 h (BV2 microglia cells [2]; 10 μM) [%] | Nitrite Release after 48 h (BV2 microglia cells [2]; 10 μM) [%] | Reduction of the number of BV2 ramified cells (BV2 microglia cells [3]; 3 μM) [%] | COX-1/COX-2 inhibition ratio (ovine COX-1; ovine COX-1 vs human COX-2) | Reduction of the number of BV2 ramified cells (BV2 microglia cells [3]; 10 μM) [%] | ROS production induced by LPS (BV2 microglia cells [1]; 100 nM) | Cell death (PI uptake in CA1) induced by LPS [4] | Nitrite Release after 24 h (BV2 microglia cells [5]; 24 h) [%] | Nitrite Release after 48 h (BV2 microglia cells [5]; 48 h) [%]
Nc1cc(-c2ccccc2)cc(-c2ccccc2)c1 [Compound 3a, 5′-Amino-m-terphenyl] | 86 | 0.8 ± 0.39 | 70 | 5.4 | – | – | significantly reverted ROS production almost to basal levels | 130 ± 14 | 145 ± 17 | 110 ± 7 | 119 ± 10 | 122 ± 10 | 120 ± 15 | 60 | around 7 | – | – | – | – | –

From article PMC10384011, “m-Terphenylamines, Acting as Selective COX-1 Inhibitors, Block Microglia Inflammatory Response and Exert Neuroprotective Activity” (Molecules, 2023)
